Data: ChEMBL document CHEMBL1145871, “Design and pharmacology of peptoids and peptide-peptoid hybrids based on the melanocortin agonists core tetrapeptide sequence” (Bioorg Med Chem Lett, 2003)
Activity calls are given as the source filed them. No cut-off for these calls is given here. Where a SMILES comes first, the peptide text is derived from it. [ ]: non-standard residue; d: D form. Gly(N(CH2)2(3-indolyl)) = O=C(O)CNCCc1c[nH]c2ccccc12; Gly(N-CH2CH2-imidazol-4-yl) = O=C(O)CNCCc1c[nH]cn1; N(1-naphthylmethyl)Gly = O=C(O)CNCc1cccc2ccccc12; Gly(N-(CH2)3-guanidino) = N=C(N)NCCCNCC(=O)O; NhArg = N=C(N)NCCCCNCC(=O)O; Nphe = O=C(O)CNCc1ccccc1; Nlys = NCCCCNCC(=O)O

What was measured:
[1] = biological target: Melanocortin receptor 5 (Mus musculus, UniProt P41149); assay: Agonistic activity evaluated at melanocortin 5 receptor (MC5R) of mouse HEK293 cells; format: functional, cell-based
[2] = biological target: Melanocortin receptor 4 (Mus musculus, UniProt P56450); assay: Agonistic activity evaluated at melanocortin 4 receptor (MC4R) of mouse HEK293 cells; format: functional, cell-based
[3] = biological target: Melanocortin receptor 3 (Mus musculus) (UniProt P33033); assay: Percent stimulation at melanocortin 3 receptor (MC3R) of mouse HEK293 cells at a concentration of 100 uM; format: cell-based
[4] = biological target: Melanocyte-stimulating hormone receptor (Mus musculus, UniProt Q01727); assay: Agonistic activity evaluated at melanocortin 1 receptor (MC1R) of mouse HEK293 cells; format: functional, cell-based
[5] = biological target: Melanocortin receptor 3 (Mus musculus, UniProt P33033); assay: Agonistic activity evaluated at melanocortin 3 receptor (MC3R) of mouse HEK293 cells; format: functional, cell-based
[6] = biological target: Melanocortin receptor 4 (Mus musculus) (UniProt P56450); assay: Percent stimulation at melanocortin 4 receptor (MC4R) of mouse HEK293 cells at a concentration of 100 uM; format: cell-based
[7] = biological target: Melanocortin receptor 4 (Mus musculus) (UniProt P56450); assay: Agonistic activity at melanocortin 4 receptor (MC4R) of mouse HEK293 cells at a concentration of 100 uM; NA=No activity; format: functional, cell-based
[8] = biological target: Melanocortin receptor 5 (Mus musculus) (UniProt P41149); assay: Percent stimulation at melanocortin 5 receptor (MC5R) of mouse HEK293 cells at a concentration of 100 uM; format: cell-based
[9] = biological target: Melanocortin receptor 3 (Mus musculus) (UniProt P33033); assay: Agonistic activity at melanocortin 3 receptor (MC3R) of mouse HEK293 cells at a concentration of 100 uM; NA=No activity; format: functional, cell-based

Melanocyte-stimulating hormone receptor, sequence (Q01727 whole entry): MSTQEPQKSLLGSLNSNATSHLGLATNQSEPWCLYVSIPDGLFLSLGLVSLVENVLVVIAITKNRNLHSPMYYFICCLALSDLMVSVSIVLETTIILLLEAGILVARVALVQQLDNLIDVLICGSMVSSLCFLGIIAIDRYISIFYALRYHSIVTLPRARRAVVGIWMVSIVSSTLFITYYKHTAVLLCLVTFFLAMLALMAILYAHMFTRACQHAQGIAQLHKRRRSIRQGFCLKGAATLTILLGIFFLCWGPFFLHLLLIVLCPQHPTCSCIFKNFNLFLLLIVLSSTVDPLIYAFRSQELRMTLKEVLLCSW
Melanocortin receptor 5, sequence (P41149 whole entry): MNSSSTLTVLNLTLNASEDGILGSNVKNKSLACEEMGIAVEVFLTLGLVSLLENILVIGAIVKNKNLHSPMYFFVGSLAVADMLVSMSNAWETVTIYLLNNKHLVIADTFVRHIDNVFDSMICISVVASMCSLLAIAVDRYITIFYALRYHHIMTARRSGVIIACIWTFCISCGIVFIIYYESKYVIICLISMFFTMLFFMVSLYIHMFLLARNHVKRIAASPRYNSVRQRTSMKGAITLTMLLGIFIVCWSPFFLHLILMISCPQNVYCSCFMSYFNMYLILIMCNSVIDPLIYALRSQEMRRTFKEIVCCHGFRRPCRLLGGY
Melanocortin receptor 3 (Mus musculus), sequence (P33033 whole entry): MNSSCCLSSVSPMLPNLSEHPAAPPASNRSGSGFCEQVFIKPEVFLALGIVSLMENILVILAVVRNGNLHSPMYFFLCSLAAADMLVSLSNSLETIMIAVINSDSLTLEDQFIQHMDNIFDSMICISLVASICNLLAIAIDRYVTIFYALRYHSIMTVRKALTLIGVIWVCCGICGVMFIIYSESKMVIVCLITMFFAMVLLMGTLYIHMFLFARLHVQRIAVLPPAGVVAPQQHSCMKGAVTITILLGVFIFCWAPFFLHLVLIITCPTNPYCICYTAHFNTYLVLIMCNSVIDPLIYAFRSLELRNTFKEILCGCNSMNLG
Melanocortin receptor 4 (Mus musculus), sequence (P56450 whole entry): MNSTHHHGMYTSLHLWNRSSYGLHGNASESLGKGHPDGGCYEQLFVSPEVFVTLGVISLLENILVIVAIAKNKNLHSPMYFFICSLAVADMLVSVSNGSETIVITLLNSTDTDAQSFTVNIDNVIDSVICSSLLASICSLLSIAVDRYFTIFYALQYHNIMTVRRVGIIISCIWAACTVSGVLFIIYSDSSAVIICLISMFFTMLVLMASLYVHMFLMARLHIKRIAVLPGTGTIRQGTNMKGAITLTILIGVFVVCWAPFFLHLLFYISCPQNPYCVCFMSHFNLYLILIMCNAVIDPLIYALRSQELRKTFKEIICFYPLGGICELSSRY
Melanocortin receptor 4, sequence (P56450 whole entry): as above
Melanocortin receptor 5 (Mus musculus), sequence (P41149 whole entry): as the sequence (P41149 whole entry) above
Melanocortin receptor 3, sequence (P33033 whole entry): as the sequence (P33033 whole entry) above

Row | Structure (SMILES) | EC50 [1] | EC50 [2] | Stimulation [3] | EC50 [4] | EC50 [5] | Stimulation [6] | Stimulation [7] | Stimulation [8] | Stimulation [9]
1 | CC(=O)N(CC(=O)N[C@@H](Cc1ccccc1)C(=O)N[C@@H](CCCN=C(N)N)C(=O)N[C@@H](Cc1c[nH]c2ccccc12)C(N)=O)Cc1ccccc1 (Ac-[Nphe]FRW-NH2) | 0.36 µM | 0.26 µM | 25% | 0.78 µM |  |  |  |  | 
2 | CC(=O)N[C@@H](Cc1c[nH]cn1)C(=O)N[C@@H](Cc1ccccc1)C(=O)N[C@@H](CCCN=C(N)N)C(=O)N(CCc1c[nH]c2ccccc12)CC(N)=O (Ac-HFR[Gly(N(CH2)2(3-indolyl))]-NH2) | 0.056 µM | 0.64 µM | 70% | 0.5 µM |  |  |  |  | 
3 | CC(=O)N[C@@H](Cc1cnc[nH]1)C(=O)N[C@@H](Cc1ccccc1)C(=O)N(CCCNC(=N)N)CC(=O)N[C@@H](Cc1c[nH]c2ccccc12)C(N)=O (Ac-HF[Gly(N-(CH2)3-guanidino)]W-NH2) | 0.16 µM | 1.1 µM |  | 0.17 µM | 9.2 µM |  |  |  | 
4 | CC(=O)N[C@@H](Cc1cnc[nH]1)C(=O)N(CC(=O)N[C@@H](CCCNC(=N)N)C(=O)N[C@@H](Cc1c[nH]c2ccccc12)C(N)=O)Cc1ccccc1 |  |  |  | 48 µM |  |  |  |  | 
5 | CC(=O)N(CCc1c[nH]cn1)CC(=O)N(CC(=O)N(CCCN=C(N)N)CC(=O)N(CCc1c[nH]c2ccccc12)CC(N)=O)Cc1ccccc1 (Ac-[Gly(N-CH2CH2-imidazol-4-yl)][Nphe][Gly(N-(CH2)3-guanidino)][Gly(N(CH2)2(3-indolyl))]-NH2) | 5.3 µM |  | 55% | 6.6 µM |  | 65% |  |  | 
6 | CC(=O)N(CCc1cnc[nH]1)CC(=O)N[C@@H](Cc1ccccc1)C(=O)N[C@@H](CCCNC(=N)N)C(=O)N[C@@H](Cc1c[nH]c2ccccc12)C(N)=O (Ac-[Gly(N-CH2CH2-imidazol-4-yl)]FRW-NH2) | 0.53 µM | 0.88 µM |  | 1.7 µM |  |  |  |  | 
7 | CC(=O)N(CC(=O)N(CC(=O)N(CCCCN=C(N)N)CC(=O)N(CC(N)=O)Cc1cccc2ccccc12)Cc1ccccc1)Cc1ccccc1 (Ac-[Nphe][Nphe][NhArg][N(1-naphthylmethyl)Gly]-NH2) | 20 µM |  | 55% | 7.6 µM |  |  | inactive |  | 
8 | CC(=O)N(CCc1c[nH]cn1)CC(=O)N[C@@H](Cc1ccccc1)C(=O)N[C@@H](CCCN=C(N)N)C(=O)N[C@@H](Cc1c[nH]c2ccccc12)C(N)=O (Ac-[Gly(N-CH2CH2-imidazol-4-yl)]FRW-NH2) |  |  | 60% |  |  |  |  |  | 
9 | CC(=O)N(CCc1c[nH]cn1)CC(=O)N(CC(=O)N(CCCCN)CC(=O)N(CCc1c[nH]c2ccccc12)CC(N)=O)Cc1ccccc1 (Ac-[Gly(N-CH2CH2-imidazol-4-yl)][Nphe][Nlys][Gly(N(CH2)2(3-indolyl))]-NH2) | 7.38 µM | 27.2 µM | 75% | 27 µM |  |  |  |  | 
10 | CC(=O)N[C@@H](Cc1c[nH]cn1)C(=O)N(CC(=O)N[C@@H](CCCN=C(N)N)C(=O)N[C@@H](Cc1c[nH]c2ccccc12)C(N)=O)Cc1ccccc1 |  |  |  |  |  | 20% |  | 40% | inactive
